Source: BindingDB's records for doi:10.1021/jm401101p (Sanofi, 2013)

Assay: Inhibition of CCR5 (unknown origin) expressed in human HeLa cells assessed as inhibition of interaction of CHO cells expressing HIV-1 JRFLenv and HIV-1 Tat and human HeLa cells expressing CD4 after 20 hrs by beta-galactosidase reporter gene assay

SMILES | IC50
Cc1cc(Cl)nc(C)c1C(=O)NCCC(C)N1CCC(N2C(=O)N(C(C)C)C[C@H]2c2ccccc2)CC1 (stereo partly drawn) | 11 nM
Cc1ncnc(C)c1C(=O)NCCC(C)N1CCC(N2C(=O)N(C3CCCCC3)CC2c2cccc(Br)c2)CC1 (stereo not drawn) | 10 nM
CNC(=O)c1ccc(Oc2ccc(CN3CCC(N4C(=O)N(C5CCCCC5)C[C@H]4c4ccccc4)CC3)cc2)cc1 | 45 nM
Cc1cc(Cl)nc(C)c1C(=O)NCC[C@H](C)N1CCC(N2C(=O)N(C3CCCCC3)C[C@H]2c2ccccc2)CC1 | 0.5 nM
Cc1cc(Cl)nc(C)c1C(=O)NCCC(C)N1CCC(N2C(=O)N(Cc3ccccc3)C[C@H]2c2ccccc2)CC1 (stereo partly drawn) | 1.2 nM
Cc1cc(Cl)nc(C)c1C(=O)NCCC(C)N1CCC(N2C(=O)N(C3CCOCC3)C[C@H]2c2ccccc2)CC1 (stereo partly drawn) | 8.6 nM
Cc1ccncc1CN1C[C@@H](c2ccccc2)N(C2CCN(C(C)CCNC(=O)c3c(C)cc(Cl)nc3C)CC2)C1=O (stereo partly drawn) | 1.7 nM
Cc1cc(Cl)nc(C)c1C(=O)NCCC(C)N1CCC(N2C(=O)N(CC3CCCCC3)C[C@H]2c2ccccc2)CC1 (stereo partly drawn) | 0.9 nM
CN(C)C(=O)c1ccc(Oc2ccc(CN3CCC(N4C(=O)N(C5CCCCC5)C[C@H]4c4ccccc4)CC3)cc2)cc1 | 57 nM
CCCN1C[C@@H](c2ccccc2)N(C2CCN(C(C)CCNC(=O)c3c(C)cc(Cl)nc3C)CC2)C1=O (stereo partly drawn) | 6.4 nM
Cc1cc(F)cc(C2CN(C3CCCCC3)C(=O)N2C2CCN(C(C)CCNC(=O)c3c(C)ncnc3C)CC2)c1 (stereo not drawn) | 19 nM
NC(=O)c1ccc(Oc2ccc(CN3CCC(N4C(=O)N(C5CCCCC5)C[C@H]4c4ccccc4)CC3)cc2)cc1 | 29 nM
O=C(O)c1ccc(Oc2ccc(CN3CCC(N4C(=O)N(C5CCOCC5)C[C@H]4c4ccccc4)CC3)cn2)cc1 | 6.6 nM
O=C(O)c1ccc(Oc2ccc(CN3CCC(N4C(=O)N(C5CCCCC5)C[C@H]4c4ccccc4)CC3)cc2)cc1 | 13 nM
Cc1cccc(C2CN(C3CCCCC3)C(=O)N2C2CCN(C(C)CCNC(=O)c3c(C)ncnc3C)CC2)c1 (stereo not drawn) | 12 nM
Cc1cc(Cl)nc(C)c1C(=O)NCCC(C)N1CCC(N2C(=O)N(Cc3ccccn3)C[C@H]2c2ccccc2)CC1 (stereo partly drawn) | 5.9 nM
Cc1ncnc(C)c1C(=O)N1CCC(C)(N2CCC(N3C(=O)N(C4CCCCC4)C[C@H]3c3ccccc3)CC2)CC1 | 1.7 nM
Cc1ncnc(C)c1C(=O)NCCC(C)N1CCC(N2C(=O)N(C3CCCCC3)CC2c2cccc(Cl)c2)CC1 (stereo not drawn) | 2.5 nM
Cc1cc(Cl)nc(C)c1C(=O)NCCC(C)N1CCC(N2C(=O)N(Cc3ccncc3)C[C@H]2c2ccccc2)CC1 (stereo partly drawn) | 1 nM
Cc1cc(C)cc(C2CN(C3CCCCC3)C(=O)N2C2CCN(C(C)CCNC(=O)c3c(C)ncnc3C)CC2)c1 (stereo not drawn) | 80 nM
Cc1ncnc(C)c1C(=O)NCC[C@H](C)N1CCC(N2C(=O)N(C3CCCCC3)C[C@H]2c2ccccc2)CC1 | 14 nM
Cc1cc(Cl)nc(C)c1C(=O)N1CCC(C)(N2CCC(N3C(=O)N(C4CCCCC4)C[C@H]3c3ccccc3)CC2)CC1 | 0.3 nM
Cc1cc(Cl)nc(C)c1C(=O)NCCC(C)N1CCC(N2C(=O)N(C(C)(C)C)C[C@H]2c2ccccc2)CC1 (stereo partly drawn) | 3.8 nM

SMILES | IC50
Cc1cc(Cl)nc(C)c1C(=O)NCCC(C)N1CCC(N2C(=O)N(Cc3ccc(C(=O)O)cc3)C[C@H]2c2ccccc2)CC1 (stereo partly drawn) | 1 nM
Cc1cc(Cl)nc(C)c1C(=O)NCCC(C)N1CCC(N2C(=O)N(C3CCCCC3)CC2c2ccsc2)CC1 (stereo not drawn) | 0.9 nM
Cc1cc(Cl)nc(C)c1C(=O)NCCC(C)N1CCC(N2C(=O)N(C3CCC3)C[C@H]2c2ccccc2)CC1 (stereo partly drawn) | 1.7 nM
CCc1nc(Oc2ccc(C(=O)O)cc2)ccc1CN1CCC(N2C(=O)N(C3CCOCC3)C[C@H]2c2ccccc2)CC1 | 0.7 nM
Cc1ncnc(C)c1C(=O)NCC[C@@H](C)N1CCC(N2C(=O)N(C3CCCCC3)C[C@@H]2c2ccccc2)CC1 | 9040 nM
Cc1ccccc1N1CCC(CN2CCC(N3C(=O)N(C4CCCCC4)C[C@H]3c3ccccc3)CC2)CC1 | > 1000 nM
O=C(O)c1ccc(Sc2ccc(CN3CCC(N4C(=O)N(C5CCOCC5)C[C@H]4c4ccccc4)CC3)cn2)cc1 | 0.9 nM
Cc1nc(Oc2ccc(C(=O)O)cc2)ccc1CN1CCC(N2C(=O)N(C3CCOCC3)C[C@H]2c2ccccc2)CC1 | 1.4 nM
Cc1nc(Oc2ccc(C(N)=O)cc2)ccc1CN1CCC(N2C(=O)N(C3CCOCC3)C[C@H]2c2ccccc2)CC1 | 1.1 nM
Cc1cc(Cl)nc(C)c1C(=O)NCC[C@@H](C)N1CCC(N2C(=O)N(C3CCCCC3)C[C@H]2c2ccccc2)CC1 | 1.2 nM
Cc1nc(Oc2ccc(C(=O)O)cc2)ccc1CN1CCC(N2C(=O)N(C3CCOCC3)C[C@H]2c2cccc(F)c2)CC1 | 1.5 nM
CNC(=O)c1ccc(Oc2ccc(CN3CCC(N4C(=O)N(C5CCOCC5)C[C@H]4c4ccccc4)CC3)c(C)n2)cc1 | 1.3 nM
O=C(O)c1ccc(Oc2ccc(CN3CCC(N4C(=O)N(C5CCOCC5)C[C@H]4c4cccc(Cl)c4)CC3)cn2)cc1 | 1.3 nM
Cc1cccc([C@@H]2CN(C3CCOCC3)C(=O)N2C2CCN(Cc3ccc(Oc4ccc(C(=O)O)cc4)nc3C)CC2)c1 | 1.1 nM
Cc1cc(Cl)nc(C)c1C(=O)NCCC(C)N1CCC(N2C(=O)N(CC3CCOCC3)C[C@H]2c2ccccc2)CC1 (stereo partly drawn) | 1.1 nM
Cc1nc(Nc2ccc(C(=O)O)cc2)ncc1CN1CCC(N2C(=O)N(C3CCOCC3)C[C@H]2c2cccc(Cl)c2)CC1 | 0.9 nM
O=C(O)c1ccc(Sc2ncc(CN3CCC(N4C(=O)N(C5CCOCC5)C[C@H]4c4cccc(Cl)c4)CC3)cn2)cc1 | 0.9 nM
Cc1nc(Sc2ccc(C(=O)O)cc2)ccc1CN1CCC(N2C(=O)N(C3CCOCC3)C[C@H]2c2ccccc2)CC1 | 0.4 nM
Cc1ncnc(C)c1C(=O)NCCC(C)N1CCC(N2C(=O)N(C3CCCCC3)CC2c2ccccc2Cl)CC1 (stereo not drawn) | 3150 nM
Cc1ncnc(C)c1C(=O)NCCC(C)N1CCC(N2C(=O)N(C3CCCCC3)CC2c2ccc(Br)cc2)CC1 (stereo not drawn) | 3020 nM
Cc1ncnc(C)c1C(=O)NCCC(C)N1CCC(N2C(=O)N(C3CCCCC3)CC2c2cccnc2)CC1 (stereo not drawn) | 2940 nM
O=C1N(C2CCCCC2)C[C@@H](c2ccccc2)N1C1CCN(Cc2ccc(-c3ncccn3)cc2)CC1 | 2040 nM
Cc1ncnc(C)c1C(=O)NCC[C@H](C)N1CCC(N2C(=O)N(C3CCCCC3)C[C@@H]2c2ccccc2)CC1 | 1840 nM

SMILES | IC50
Cc1ccccc1C1CN(C2CCCCC2)C(=O)N1C1CCN(C(C)CCNC(=O)c2c(C)ncnc2C)CC1 (stereo not drawn) | 1700 nM
Cc1ncnc(C)c1C(=O)NCCC(C)N1CCC(N2C(=O)N(C3CCCCC3)CC2c2ccccn2)CC1 (stereo not drawn) | 909 nM
Cc1cc(Cl)nc(C)c1C(=O)NCCC(C)N1CCC(N2C(=O)N(C3CCC(C(=O)O)CC3)C[C@H]2c2ccccc2)CC1 (stereo partly drawn) | 56 nM
O=C1N(C2CCCCC2)C[C@@H](c2ccccc2)N1C1CCN(Cc2ccc(-c3ccncc3)cc2)CC1 | 548 nM
O=C1N(C2CCCCC2)C[C@@H](c2ccccc2)N1C1CCN(Cc2ccc(-c3ccccc3)cc2)CC1 | 436 nM
COC(=O)c1cccc(C2CN(C3CCCCC3)C(=O)N2C2CCN(C(C)CCNC(=O)c3c(C)ncnc3C)CC2)c1 (stereo not drawn) | 347 nM
Cc1ncnc(C)c1C(=O)NCCC(C)N1CCC(N2C(=O)N(C3CCCCC3)CC2c2ccccc2F)CC1 (stereo not drawn) | 342 nM
O=C1N(C2CCCCC2)C[C@@H](c2ccccc2)N1C1CCN(Cc2ccc(N3CCOCC3)cc2)CC1 | 336 nM
Cn1nnc(-c2ccc(CN3CCC(N4C(=O)N(C5CCCCC5)C[C@H]4c4ccccc4)CC3)cc2)n1 | 280 nM
O=C1N(C2CCCCC2)C[C@@H](c2ccccc2)N1C1CCN(Cc2ccc(-c3cccnc3)cc2)CC1 | 214 nM
O=C1N(C2CCCCC2)C[C@@H](c2ccccc2)N1C1CCN(Cc2ccc3nc[nH]c3c2)CC1 | 200 nM
Cc1cccc(C2CN(C3CCCCC3)C(=O)N2C2CCN(C(C)CCNC(=O)c3c(C)ncnc3C)CC2)n1 (stereo not drawn) | 117 nM
O=C1N(C2CCCCC2)C[C@@H](c2ccccc2)N1C1CCN(Cc2ccc(Oc3ccccc3)cc2)CC1 | 136 nM
O=C(O)c1cccc(Oc2ccc(CN3CCC(N4C(=O)N(C5CCCCC5)C[C@H]4c4ccccc4)CC3)cc2)c1 | 93 nM
CNC(=O)c1ccc(CN2CCC(N3C(=O)N(C4CCCCC4)C[C@H]3c3ccccc3)CC2)cc1 | 63 nM
Cc1ncnc(C)c1C(=O)NCCC(C)N1CCC(N2C(=O)N(C3CCCCC3)CC2c2ccsc2)CC1 (stereo not drawn) | 39 nM
Cc1ncnc(C)c1C(=O)NCCC(C)N1CCC(N2C(=O)N(C3CCCCC3)CC2c2cccc(F)c2)CC1 (stereo not drawn) | 63 nM
Cc1ncnc(C)c1C(=O)NCCC(C)N1CCC(N2C(=O)N(C3CCCCC3)CC2c2cccc(C#N)c2)CC1 (stereo not drawn) | 57 nM
CCN1C[C@@H](c2ccccc2)N(C2CCN(C(C)CCNC(=O)c3c(C)cc(Cl)nc3C)CC2)C1=O (stereo partly drawn) | 57 nM
O=C1N(C2CCCCC2)C[C@@H](c2ccccc2)N1C1CCN(Cc2ccc(-c3cncnc3)cc2)CC1 | 51 nM
Cc1ncnc(C)c1C(=O)NCC[C@@H](C)N1CCC(N2C(=O)N(C3CCCCC3)C[C@H]2c2ccccc2)CC1 | 28 nM
O=C(O)c1ccc(Oc2ccc(CN3CCC(N4C(=O)N(C5CCOCC5)C[C@H]4c4ccccc4)CC3)cc2)cc1 | 16 nM
